The results in this text go back to patent US7709645B2, “Pyrrolo-pyridine kinase modulators” (SGX Pharmaceuticals, Inc., priority 2004, dated 2010).

In general, IC50 refers to the concentration that inhibits the measured activity by half. Lower therefore signals greater potency in that assay.

In this assay the target is T1, PDK1 kinase (Homo sapiens, UniProt O15530).
T1 construct: 6x Histidine tag (TEV-cleavable) (cleaved yes); made in house; host or cells: Sf9 insect cells
T1 sequence (O15530 1-556): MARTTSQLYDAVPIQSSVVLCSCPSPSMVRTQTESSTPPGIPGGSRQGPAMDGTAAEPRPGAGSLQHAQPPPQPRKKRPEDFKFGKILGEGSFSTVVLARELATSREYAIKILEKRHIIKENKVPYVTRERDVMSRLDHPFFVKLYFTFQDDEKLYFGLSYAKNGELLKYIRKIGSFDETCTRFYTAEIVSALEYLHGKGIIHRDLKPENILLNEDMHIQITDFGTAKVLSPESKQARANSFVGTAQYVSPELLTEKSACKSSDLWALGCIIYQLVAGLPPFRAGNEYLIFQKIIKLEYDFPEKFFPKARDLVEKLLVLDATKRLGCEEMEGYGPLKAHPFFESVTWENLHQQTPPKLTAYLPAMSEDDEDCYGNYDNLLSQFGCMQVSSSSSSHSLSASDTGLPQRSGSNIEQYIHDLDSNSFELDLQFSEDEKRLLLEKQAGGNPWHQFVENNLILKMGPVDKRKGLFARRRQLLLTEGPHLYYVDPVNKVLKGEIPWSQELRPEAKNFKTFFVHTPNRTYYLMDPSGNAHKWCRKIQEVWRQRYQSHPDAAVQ
Kind of assay: PDK1 Bioassay (luminescence-based enzyme assay, Kinase-Glo). The settings on record: 5 μM ATP. The assay is classed as biochemical. The source says: In addition to the c-Abl PK/LDH coupled assay (above), homogeneous luminescence-based inhibitor screening assays were developed for c-Abl, MET, AurA, and PDK1 kinases (among others). Each of these assays made use of an ATP depletion assay (Kinase-Glo™, Promega Corporation, Madison, Wis.) to quantitate kinase activity. The Kinase-Glo™ format uses a thermostable luciferase to generate luminescent signal from ATP remaining in solution following the kinase reaction. The luminescent signal is inversely correlated with the amount of kinase activity.
Materials: PDKtide peptide substrate=KTFCGTPEYLAPEVRREPRJLSEEEQEMFRDFDYIADWC (SEQ ID NO:3) (Upstate Cat#12-401), ATP (Sigma Cat#A-3377, FW=551), HEPES buffer, pH 7.5, 10% Brij 35 (Calbiochem Cat#203728), MgCl2, Staurosporine (Streptomyces sp. Sigma Cat#85660-1MG), white Costar 384-well flat-bottom plate (VWR Cat#29444-088), PDK1 kinase (see below), Kinase-Glo™ (Promega Cat#V6712).
Stock Solutions: 1 mM PDKtide substrate (1 mg in 200 μl, as supplied by Upstate), stored at −20° C.; 100 mM HEPES buffer, pH 7.5 (5 ml 1M HEPES stock+45 ml miliQH2O); 10 mM ATP (5.51 mg/ml in dH2O) stored at −20° C. (diluted 25 μl into total of 10 ml miliQH2O daily=25 μM ATP working stock); 100 mM MgCl2; 10% Brij 35 stored at 2-8° C.; 200 μM Staurosporine, 2× Kinase-Glo™ reagent (made fresh or stored at −20° C.).
Standard Assay Setup for 384-well format (20 μl kinase reaction, 40 μl detection reaction): 10 mM MgCl2; 0.01 mM PDKtide; 1 μl test compound (in DMSO); 0.1 μg/ml PDK1 kinase; 5 μM ATP; 10 mM MgCl2; 100 mM HEPES+0.01% Brij buffer. Positive controls contained DMSO with no test compound. Negative controls contained 10 μM staurosporine. The kinase reactions were initiated at time t=0 by the addition of ATP. Kinase reactions were incubated at 21° C. for 40 min, then 20 μl of Kinase-Glo™ reagent were added to each well to quench the kinase reaction and initiate the luminescence reaction. After a 20 min incubation at 21° C., the luminescence was detected in a plate-reading luminometer.
Cell pellets produced from 6 L of Sf9 insect cells expressing human PDK1 were resuspended in a buffer containing 50 mM Tris-HCl pH 7.7 and 250 mM NaCl in a volume of approximately 40 mL per 1 L of original culture. One tablet of Roche Complete, EDTA-free protease inhibitor cocktail (Cat# 1873580) and 85 units Benzonase (Novagen Cat#70746-3)) were added per 1 L of original culture. The suspension was stirred for 1 hour at 4° C. Debris was removed by centrifugation for 30 minutes at 39,800×g at 4° C. The supernatant was decanted into a 500 mL beaker and 10 ml of a 50% slurry of Qiagen Ni-NTA Agarose (Cat#30250) that had been pre-equilibrated in 50 mM Tris-HCl pH 7.8, 500 mM NaCl, 10% Glycerol, 10 mM Imidazole, and 10 mM Methionine, were added and stirred for 30 minutes at 4° C. The sample was then poured into a drip column at 4° C. and washed with 10 column volumes of 50 mM Tris-HCl pH 7.8, 500 mM NaCl, 10% Glycerol, 10 mM Imidazole, and 10 mM Methionine. The protein was eluted using a step gradient with two column volumes each of the same buffer containing 50 mM, and 500 mM Imidazole, sequentially. The 6×Histidine tag was cleaved overnight using 40 units of TEV protease (Invitrogen Cat#10127017) per 1 mg of protein while dialyzing in 50 mM Tris-HCl pH 7.8, 500 mM NaCl, 10% Glycerol, 10 mM Imidazole, and 10 mM Methionine at 4° C. The 6× Histidine tag was removed by passing the sample over a Pharmacia 5 ml IMAC column (Cat# 17-0409-01) charged with Nickel and equilibrated in 50 mM Tris-HCl pH 7.8, 500 mM NaCl, 10% Glycerol, 10 mM Imidazole, and 10 mM Methionine. The cleaved protein eluted in the flow-through, whereas the uncleaved protein and the His-tag remained bound to the Ni-column. The cleaved protein fractions were combined and concentrated using spin concentrators. […]
In general terms: Kinase-Glo measures the ATP left after a reaction by luminescence.
Take `CNC(=O)c1cc(-c2cnc3[nH]cc(-c4ccccc4OC)c3c2)cs1` [AE2]: the IC50 was 1000 to 5000 nM.

Molecule `COc1ccccc1-c1c[nH]c2ncc(-c3csc(C(=O)N(C)C)c3)cc12` [AE3] yielded an IC50 of 1000 to 5000 nM. Consider `COc1ccccc1-c1c[nH]c2ncc(-c3cc[nH]c(=O)c3)cc12` [AE9], for which the 50% inhibitory concentration (IC50) was in the range of 1000 to 5000 nM. For `COc1ccccc1-c1c[nH]c2ncc(-c3ccc4[nH]cc(CC(=O)O)c4c3)cc12` [AE10], the 50% inhibitory concentration (IC50) fell in the range of 1000 to 5000 nM. In the case of `COc1ccccc1-c1c[nH]c2ncc(-c3ccc(S(N)(=O)=O)s3)cc12` [AE11], the concentration for half-maximal inhibition (IC50) was 1000 to 5000 nM. On to `N#Cc1cc(-c2cnc3[nH]cc(-c4ccc5[nH]ccc5c4)c3c2)ccc1O` [AE20], for which the IC50 was in the range of 1000 to 5000 nM. In the case of `COc1ccccc1-c1c[nH]c2ncc(-c3ccc(S(N)(=O)=O)cc3)cc12` [AE21] it was 1000 to 5000 nM; in that of `Oc1cccc(-c2cnc3[nH]cc(-c4ccc(O)c(F)c4)c3c2)c1` [AE48], 1000 to 5000 nM; in that of `Oc1cccc(-c2cnc3[nH]cc(-c4ccn[nH]4)c3c2)c1` [AE49], 1000 to 5000 nM. Molecule `Nc1nc(-c2c[nH]c3ncc(-c4ccc5[nH]ccc5c4)cc23)cs1` [AE55] yielded an IC50 of less than 1000 nM. The figure for `COc1cc(-c2cnc3[nH]cc(-c4ccc(O)cc4)c3c2)ccc1O` [AE58] is less than 1000 nM; for `COc1cc(-c2cnc3[nH]cc(-c4ccccc4OC)c3c2)ccc1O` [AE64] it is 1000 to 5000 nM.
